Patent US6030980A, “Agent for the treatment of infections” (priority 1994, dated 2000)

Experiments:
[1] = test system: herpes simplex virus type I; test: animal or person; type: in vivo, BALB/c male mice; conditions: thermally injured mice, HSV type I 3×10^3 PFU/kg i.p., oral 1 μg/kg of aconite-alkaloid; for responders at 0.001 mg/kg: Mus musculus, 600 h, read-out: survival rate; for average survival days: 25 days
[2] = test system: suppressor cell activities induced in thermally injured mice; type: cell-based, BALB/c mice; conditions: 1 μg/kg of aconite-alkaloid given twice to contrasuppressor cell donors; normal model 12413 ± 1438, susceptibility model 2650 ± 70
[3] = Acute toxicity of aconite-alkaloids; conditions: in vivo
[4] = test system: AIDS virus (LP-BM5 virus); test: Survival of opportunistic infection model mice infected with AIDS virus (LP-BM5 virus) (Experimental Example 3); type: in vivo; conditions: 1 μg/kg oral, observed for 150 days, saline 0%
Method: Mice as opportunistic infection model inoculated intraperioneally with 0.1 ml/mouse of a culture supernatant of AIDS virus (LP-BM5 virus) infected SC-1 cells were orally given benzoylmesaconine or physiological saline.

[5] = test system: suppressor cell activities; test: Contrasuppressor cell activities in MLTR, suppressor cells from LP-BM5 virus infected mice; type: cell-based; conditions: 1 μg/kg, suppressor cells from mice 110 days after infection with LP-BM5 virus
Method: Contrasuppressor cell activities, i.e. cells activities suppressing the suppressor cell activities induced in thermally injured mice were determined in mixed lymphocyte tumor cell reaction (MLTR) by mixing and incubating the following cells for 5 days in a 96-wells round-bottom microplate.
Reaction cells: Spleen mononuclear cells (referred to hereinafter as SMNCs) (5.0×10^4 cells/well) obtained from normal BALB/c mice.
Stimulator cells: EL-4 tumor cells (5.0×10^4 cells/well).
Suppressor cells: SMNCs (2.5×10^5 cells/well) obtained from the model of increased susceptibility to infections. […]
Before incubation, the cells except for the reaction cells were treated with 40 μg/ml of mitomycin C solution at 37° C. for 30 minutes. Twenty-four hours before the conclusion of 3-days incubation, 0.5 μCi/well of ^3 H-thymidine was added to the well, and the amount of ^3 H-thymidine incorporated into the reaction cells was determined in a liquid scintillation counter to evaluate the contrasuppressor cell activities induced against the suppressor cell activities by administration of the active ingredient of the present agent.
The contrasuppressor cell activities induced against suppressor cell activities by administration of benzoylmesaconine was evaluated in the same manner as in "(3) Measurement of contrasuppressor cell activities" in Experimental Example 1. […]

[6] = test system: cytomegalovirus (CMV); test: Survival of thermally injured mice infected with cytomegalovirus (Experimental Example 7); conditions: CMV 2.5×10^3 PFU/mouse i.v., 10 μg/kg/day oral, 25 days
[7] = test system: CMV; conditions: SCID mice, 10 μg/kg/day oral
[8] = test system: herpes simplex virus type I; test: Survival of mice infected with a lethal dose of herpes simplex virus type I (Experimental Example 2); type: in vivo, BALB/c mice; conditions: HSV type I 3×10^5 PFU/kg i.p., 10 μg/kg oral, before and after infection
Method: In this example, 7-week-old BALB/c mice were infected intraperioneally with a lethal dose (3×10^5 PFU/kg) of herpes simplex virus type I. Two days before the infection, 1 day and 4 days after the infection, the active ingredient of the present agent (10 μg/kg) or physiological saline (control) was orally administered through a stomach probe into the mice. Twenty-five days after the infection, their survival rate was determined to evaluate the action of the active ingredient. In this experiment, the experimental mice were given the active ingredient of the present agent before and after infection with the virus to evaluate its action mainly on the prevention and treatment of the virus infection.

[9] = J. Pharm. Dyu.7, 836-848 (1984); cited from earlier work
[10] = twenty-five days after infection

Row | SMILES | responders at 0.001 mg/kg [1, 10] | average survival days [1] | incorporation of ^3 H-thymidine [2] | LD50 [3] | further results
1 | CCN1CC2(COC)C(O)CC(OC)C34C5CC6(O)C(OC)C(O)C(O)(C5C6OC(=O)c5ccc(OC)cc5)C(C(OC)C23)C14 (centres unmarked) [14-anisoylaconine] | 80% | > 22.5 days | 12720 ± 1578 CPM ± SE | 20 to 500 mg/kg | –
2 | CCN1CC2(COC)C(O)CC(OC)C34C5CC6(O)C(OC)C(=O)C(C5C6OC(=O)c5ccccc5)C(C(OC)C23)C14 (stereo not drawn) [16-epi-pyraconitine] | 70% | > 21.2 days | 15654 ± 1209 CPM ± SE | 20 to 500 mg/kg | –
3 | COCC12CN(C)C3C4C(OC)C1C3(C(OC)CC2O)C1CC2(O)C(OC)C(=O)C4C1C2OC(=O)c1ccccc1 (stereo not drawn) [16-epi-pyromesaconitine] | 80% | > 22.4 days | 16891 ± 2232 CPM ± SE | 20 to 500 mg/kg | –
4 | C=C1C2CCC3(C4CC5C6(C)CCCC5(C(O4)N(CCO)C6)C3C2)C1O (centres unmarked) [ajaconine] | 80% | > 22.3 days | 17655 ± 1879 CPM ± SE | 20 to 500 mg/kg | –
5 | CCN1CC2(COC)C(O)CC(OC)C34C5CC6(O)C(OC)C(O)C(O)(C5C6OC(=O)c5ccccc5)C(C(OC)C23)C14 (centres unmarked) [benzoylaconine] | 80% | > 22.5 days | 16140 ± 1738 CPM ± SE | 20 to 500 mg/kg | –
6 | COCC12CCC(OC)C34C5CC6(O)C(OC)C(O)C(O)(C5C6OC(=O)c5ccccc5)C(C(OC)C13)C4N(C)C2 (centres unmarked) [benzoylhypaconine] | 80% | > 22.4 days | 21319 ± 903 CPM ± SE | 20 to 500 mg/kg | –
7 | COCC12CN(C)C3C4C(OC)C1C3(C(OC)CC2O)C1CC2(O)C(OC)C(O)C4(O)C1C2OC(=O)c1ccccc1 (centres unmarked) [benzoylmesaconine] | 85% | > 21.5 days | 14754 ± 1832 CPM ± SE | 20 to 500 mg/kg | survival rate [4]: 80%; suppressing rate ([5]; saline 81%): 4%; incorporation of ^3 H-thymidine ([5]; saline 1,730 ± 289): 8,826 ± 535 CPM ± SE; survival rate ([6]; saline 0%): 100%; average survival days ([6]; saline 12.4): > 22.1 days; survival rate ([7]; CMV 2.5×10^3 PFU/mouse, saline 0%): 100%; protective effect on CMV [7]: protective effect
8 | CCCCC[C@H](O)CC(=O)CCc1ccc(O)c(OC)c1 [gingerol] | – | – | – | – | average survival days ([8]; 25 days): > 24.4 days; survival rate [8, 10]: 90%; acute toxicity LD50 [9]: about 250 mg/kg
9 | COCC12CCC(OC)C34C5CC6(O)C(O)C5C(O)(C(O)C6OC)C(C(OC)C13)C4N(C)C2 (centres unmarked) [hypaconine] | 85% | > 23.1 days | 14111 ± 2232 CPM ± SE | 20 to 500 mg/kg | –
10 | C=C1[C@H]2C[C@@H]3[C@H]4N5C[C@@]6(C)[C@H]7[C@@H]5C[C@]3([C@@H]1O)[C@@](O)(C2)[C@]74C[C@@H](OC(=O)c1ccccc1)[C@@H]6O [ignavine] | – | > 21.9 days | 12831 ± 2255 CPM ± SE | – | survival rate [1, 10]: 75%
11 | COCC12CN(C)C3C4C(OC)C1C3(C(OC)CC2O)C1CC2(O)C(O)C1C4(O)C(O)C2OC (centres unmarked) [mesaconine] | 85% | > 23.1 days | 15791 ± 2778 CPM ± SE | 20 to 500 mg/kg | –
12 | CCN1CC2(COC)CCC(O)C34C5CC6C(OC)CC(O)(C5C6O)C(C(OC)C23)C14 (centres unmarked) [neoline] | 80% | > 22.3 days | 13744 ± 526 CPM ± SE | 20 to 500 mg/kg | –
